Publication PMC4906958 (Journal of the American Chemical Society, 2016)

Assays:
MelB of E. coli (MelBEc) [1] = biological target: T1, MelB of E. coli (MelBEc) (Escherichia coli, UniProt P02921); assay: Trp to D2G FRET, reversed by melibiose, in detergent extract; type: cell-based
[2] = biological target: LeuT (leucine transporter) (Aquifex aeolicus, UniProt O67854); assay: radioligand binding by scintillation proximity assay
MelB of E. coli (MelBEc) [3] = biological target: T1, MelB of E. coli (MelBEc); assay: melibiose reversal of Trp to D2G FRET in detergent extract; type: cell-based

T1 sequence (P02921 2-473): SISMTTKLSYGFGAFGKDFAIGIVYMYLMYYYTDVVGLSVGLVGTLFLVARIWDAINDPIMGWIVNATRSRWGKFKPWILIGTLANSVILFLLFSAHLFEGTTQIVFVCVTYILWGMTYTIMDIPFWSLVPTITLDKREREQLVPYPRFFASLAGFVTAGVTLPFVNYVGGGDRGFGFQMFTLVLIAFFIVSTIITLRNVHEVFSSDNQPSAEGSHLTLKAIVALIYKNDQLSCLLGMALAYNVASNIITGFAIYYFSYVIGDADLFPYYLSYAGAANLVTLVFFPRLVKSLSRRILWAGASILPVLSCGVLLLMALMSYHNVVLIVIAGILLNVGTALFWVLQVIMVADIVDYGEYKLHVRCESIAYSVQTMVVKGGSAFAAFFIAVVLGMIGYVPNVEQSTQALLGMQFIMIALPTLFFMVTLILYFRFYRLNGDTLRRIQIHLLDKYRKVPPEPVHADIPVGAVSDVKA

For `CN(C)c1cccc2c(S(=O)(=O)NCCS[C@@H]3O[C@H](CO)[C@H](O)[C@H](O)[C@H]3O)cccc12` [D2G, dansyl-2-galactoside], which “Trp to D2G FRET, reversed by melibiose, in detergent extract” value (MelB of E. coli (MelBEc) [1]) is on record?
The value was “Melibiose reversal of Trp to dansyl-2-galactoside (D^2G) FRET”.

With `CC(C)C[C@H](N)C(=O)O` [leucine] as the compound, how does the “radioligand binding by scintillation proximity assay (SPA)” value [2] read?
Its value is “measuring the ability to bind a radio-labelled ligand ([^3H]-leucine) via scintillation proximity assay (SPA)”.

For `OC[C@H]1O[C@H](OC[C@H]2OC(O)[C@H](O)[C@@H](O)[C@@H]2O)[C@H](O)[C@@H](O)[C@H]1O` (stereo partly drawn) [melibiose], which “melibiose reversal of Trp to D2G FRET in detergent extract” value (MelB of E. coli (MelBEc) [3]) is on record?
Its value is “MelBEc in PSE-C11 maintained the melibiose binding, which is similar to that observed for the protein in MNG-3”.
